Measurements reported in patent US20100099756A1, “USES OF INCENSOLE, INCENSOLE ACETATE AND DERIVATIVES THEREOF” (YISSUM RESEARCH DEVELOPMENT COMPANY OF THE HEBREW …, priority 2006, published 2010).

What was measured:
ROS generation = experiment: ROS production by zymosan-activated RAW 264.7 macrophages (chemiluminescence); format: cell-based, mice
Protocol: (A(1)) Representative Western Blot bands of Cox2 are shown with tubulin as reference. (A(2)) COX-2 levels were measured in RAW 264.7 cells incubated for 24 hrs. with LPS in the presence or in the absence of IA (60 μM/ml); **, p<0.001. (B) Murine peritoneal macrophages were activated by LPS (1 μg/ml for 24 hrs.) in absence of IA or in the presence of IA at indicated concentrations. NO generation was determined by measuring the nitrite accumulated in the supernatants; **, p<0.001. (C) Generation of ROS by RAW 264.7 macrophages (5×10^5 cells in 0.5 ml Hanks' balanced salt solution) was measured by chemiluminescence. Cells were pre-incubated with various doses of IA for 24 hrs before luminol (10 μl) and zymosan (30 μl) were added to the tubes; *, p<0.05; **, p<0.01; ***, p<0.001
ROS (Reactive Oxygen Species) Production by RAW 264.7 Macrophages. Raw 264.7 cells were scrapped, washed and resuspended in Hanks' balanced salt solution (without phenol red). For measurement of chemiluminescence, 0.5 ml of cell suspension (5×10^5 cells) was added to each luminometer tube, together with various doses of IA tested (dissolved in ethanol and further diluted with Hanks). […] 10 μl of luminol (Sigma, St. Louis, USA) and 30 μl of zymosan (Sigma, St. Louis, USA) were added to the tubes, and the chemiluminescence was measured immediately in a luminometer (Biolumate LB 95, Berhold, Wilbad, Germany).

[1] = test system: locomotion and cataleptic response; experiment: Open field test and ring test; format: in vivo, female Sabra mice; conditions: i.p., Sabra mice
Protocol: To study the functional effects of IA on the CNS, IA was assayed in a panel of standard behavioral assays in mice (female Sabra strain, 15-20 weeks old), namely: the elevated plus maze [Crawley, J. N. What's Wrong with my Mouse? Behavioral Phenotyping of Transgenic and Knockout Mice (Wiley-Liss, New York, 2000)], the Porsolt forced-swimming test [Petit-Demouliere, B., Chenu, F. & Bourin, M. Forced swimming test in mice: a review of antidepressant activity. Psychopharmacology 177, 245-255 (2005)], locomotion in the open field test and cataleptic response in a ring test [Fride, E. & Mechoulam, R. Pharmacological activity of the cannabinoid receptor agonist, anandamide, a brain constituent. Eur. J. Pharmacol. 231, 313-314 (1993). The elevated plus maze assay is based on the preference of mice for the closed arms of a maze, apparently due to fear of open spaces.

TRPV3 = molecular target: T1, TRPV3 (Mus musculus, UniProt Q8K424); experiment: Calcium imaging of TRPV3+/+ and TRPV3−/− primary keratinocytes; format: cell-based; design: endogenous in cells; host or cells: primary keratinocytes from TRPV3+/+ mouse pups (day 1-4); TRPV3-/- cells as control; conditions: IA 500 μM
T1 sequence (Q8K424 1-791): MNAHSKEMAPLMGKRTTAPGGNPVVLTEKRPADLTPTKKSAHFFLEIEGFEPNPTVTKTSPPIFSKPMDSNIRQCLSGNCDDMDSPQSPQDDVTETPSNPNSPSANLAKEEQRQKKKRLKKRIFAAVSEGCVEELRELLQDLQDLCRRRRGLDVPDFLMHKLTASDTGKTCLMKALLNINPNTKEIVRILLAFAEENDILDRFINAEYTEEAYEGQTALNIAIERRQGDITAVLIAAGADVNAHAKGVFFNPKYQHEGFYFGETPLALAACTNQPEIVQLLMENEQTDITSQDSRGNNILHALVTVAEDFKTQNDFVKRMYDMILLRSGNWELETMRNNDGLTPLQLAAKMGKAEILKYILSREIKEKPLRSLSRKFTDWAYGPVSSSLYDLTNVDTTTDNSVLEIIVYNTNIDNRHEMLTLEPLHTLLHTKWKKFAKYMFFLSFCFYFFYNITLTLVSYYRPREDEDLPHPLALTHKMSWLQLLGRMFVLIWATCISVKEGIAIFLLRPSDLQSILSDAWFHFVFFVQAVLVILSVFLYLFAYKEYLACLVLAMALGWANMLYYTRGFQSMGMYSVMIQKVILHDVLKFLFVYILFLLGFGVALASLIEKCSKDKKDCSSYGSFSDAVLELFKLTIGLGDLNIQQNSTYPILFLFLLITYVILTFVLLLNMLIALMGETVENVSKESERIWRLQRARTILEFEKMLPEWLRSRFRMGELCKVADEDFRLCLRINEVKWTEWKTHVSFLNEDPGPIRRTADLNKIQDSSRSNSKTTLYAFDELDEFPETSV
Source text: HEK293 cells were transiently transfected with a rat TRPV2 plasmid using lipofectamine reagent (Invitrogen, Carlsbad, Calif.) according to manufacturer's protocol. They were then maintained in Dulbecco's modified Eagle Medium/10% fetal calf serum supplemented with Penicillin, Streptomycin, and L-glutamine. Primary keratinocytes from TRPV3-deficient and TRPV3+/+ mouse pups (day 1-4) were harvested and cultured as described previously [Chung, M. K., Lee, H., Mizuno, A., Suzuki, M. & Caterina, M. J. TRPV3 and TRPV4 mediate warmth-evoked currents in primary mouse keratinocytes. J. Biol. Chem. 279, 21569-21575 (2004)].
Calcium imaging of TRPV3^+/+ and TRPV3^−/− keratinocytes. Primary keratinocytes from TRPV3-deficient and WT mouse pups (day 1-4) were harvested and cultured as described [Chung, M. K., Lee, H., Mizuno, A., Suzuki, M. & Caterina, M. J. TRPV3 and TRPV4 mediate warmth-evoked currents in primary mouse keratinocytes. J. Biol. Chem. 279, 21569-21575 (2004)].
Cells were plated on glass coverslips (10^5/cm^2) and incubated for 48-60 h, then loaded with fura-2 AM (20 μM, 0.04% pleuronic acid, 32° C. for 1 h) in imaging buffer containing (in mM): 130 NaCl, 2.5 CaCl2, 0.6 MgCl2, 10 HEPES, 1.2 NaHCO3, 10 glucose, pH 7.45. Ratiometric Ca^2+ imaging was performed as previously described [O'dell, D. K., Rimmerman, N., Pickens, S. R. & Walker J. M. Fatty acyl amides of endogenous tetrahydroisoquinolines are active at the recombinant human TRPV1 receptor. Bioorg. Med. Chem. 15, 6164-6169 (2007)]. Drug was added to the bath following a period of baseline recording. Calcium measurements were made from 30 randomly selected cells per coverslip.
Data analysis of calcium imaging data. Analysis of calcium imaging data was done using a non-linear regression curve fit (Graphpad 4 Prism, San Diego, Calif.). t tests and one way ANOVA were calculated using SPSS (Chicago, Ill.). […] Averaged drug responses over 30 randomly selected cells per coverslip were analyzed with two-tailed unpaired t tests.

In the case of `CC(=O)OC1CC/C(C)=C/CC/C(C)=C/CC2(C(C)C)CCC1(C)O2` (stereo not drawn) [IA, incensole acetate], the inhibition at 60 µM (ROS generation; Mus musculus, RAW264.7, at 60 μM, p=0.0021) is reported as ~45%, the “ROS generation, dose dependence” value (ROS generation; three concentrations, 24 hrs pre-incubation, ANOVA P<0.0001) is reported as “significant dose-dependent inhibitory effect” and the “immobility on a ring” value [1] is reported as “impaired immobility on a ring”. For the same compound, the open field behavior [1] was “significant reduction of open field behavior”, the “calcium influx in primary keratinocytes from TRPV3−/− mice” value (TRPV3) was “not from TRPV3” and the “calcium influx in primary keratinocytes from WT mice” value (TRPV3; camphor 10 mM) was “induced a calcium influx”.
